The results in this text go back to publication PMC5453487, “Targeting YAP/TAZ-TEAD protein-protein interactions using fragment-based and computational modeling approaches” (PLoS ONE, 2017).

For this test, the target named is mouse TEAD4 (mTEAD4) (Mus musculus, UniProt Q62296). Nature of the test: X-ray co-crystal structure ([…] Å), ITC; also thermal shift assay and MST ([…]). In kind it is binding.
Chain of mouse TEAD4 (mTEAD4) (Q62296 210-427): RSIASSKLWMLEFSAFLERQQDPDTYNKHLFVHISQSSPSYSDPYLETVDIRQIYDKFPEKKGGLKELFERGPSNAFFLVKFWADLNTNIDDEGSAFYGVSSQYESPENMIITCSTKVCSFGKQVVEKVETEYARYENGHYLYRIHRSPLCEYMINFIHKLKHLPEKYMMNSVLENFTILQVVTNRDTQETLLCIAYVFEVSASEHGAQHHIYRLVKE

The term Kd denotes the equilibrium constant for the complex coming apart. For `O=C(O)C(c1ccccc1)n1cccc1` (stereo not shown) [compound 1, fragment 1], the dissociation constant Kd was ~300 µM.
